Test results: patent EP0745595A1, “3-(3-Aryloxyphenyl)-1-(substituted methyl)-s-triazine-2,4,6-oxo or thiotrione herbicidal agents” (American Cyanamid Company, priority 1995, dated 1996)

How the values were obtained:
Assay type in all cases: in vivo
[1] = system: ORYZA SATIVA, L. TEBONNET; assay: Rice tolerance to post-transplant applications under flooded paddy conditions, ORYSAT (Rice, Tebonnet); details: post-transplant rice, rated three to four weeks after treatment;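 further: applied to flooded soil surface three days after transplanting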
In short: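 Rated on a visual 0–9 scale against untreated plants 3–4 weeks after application, rice (cv. Tebonnet) tolerance was tested by applying compounds (approx. 0.5–0.063 kg/ha, acetone/water 50/50) to flooded soil three days post-transplant, water kept 1.5–3 cm deep.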

[2] = system: SAGITTARIA PYGMAEA, L.; assay: Preemergence weed control under flooded paddy conditions, SAGPY (Arrowhead (Pygmaea)); details: preemergence weeds, rated three to four weeks after treatment
In short: (§1)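 Visual 0-9 rating against untreated control, covering stand, vigor, malformation, size and chlorosis, scored three to four weeks post-treatment in a greenhouse. Application was into 1.5-3 cm flood water over silt loam sown at 0.5 cm. The 50/50 v/v aqueous/acetone doses were about 0.5, 0.25, 0.125 and 0.063 kg/ha.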

[3] = system: GALIUM APARINE; assay: Preemergence herbicidal evaluation, GALAP (Galium); details: four to five weeks after treatment
Source text: Results of herbicide evaluation are expressed on a rating scale (0-9). The scale is based upon a visual observation of plant stand, vigor, malformation, size, chlorosis and overall plant appearance as compared with a control.
The preemergence herbicidal activity of the test compounds of the present invention is exemplified by the following tests in which the seeds of a variety of monocotyledonous and dicotyledonous plants are separately mixed with potting soil and planted on top of approximately one inch of soil in separate pint cups. […] The treated cups are then placed on greenhouse benches, watered and cared for in accordance with conventional greenhouse procedures. From four to five weeks after treatment, the tests are terminated and each cup is examined and rated according to the rating system provided in Example 40.
The compounds evaluated are reported by compound number given in Example 40.

[4] = system: ABUTILON THEOPHRASTI, MEDIC.; assay: Postemergence herbicidal evaluation, ABUTH (Velvetleaf); details: rated four to five weeks after treatment, averaged
In short: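 This postemergence herbicide test used two-week-old velvetleaf seedlings grown in jiffy flats. Each compound was sprayed at 40 psi as a dispersion in 50/50 acetone/water with 0.5% TWEEN®20 surfactant. Plants then received routine greenhouse care. After four to five weeks, injury was scored visually on a 0-9 scale against a control, and replicate tests were averaged.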

[5] = system: CHENOPODIUM ALBUM, L.; assay: Preemergence herbicidal evaluation, CHEAL (Lambsquarters, Common); details: four to five weeks after treatment
In short: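 Rated 0-9 by visual comparison with control (stand, vigor, malformation, size, chlorosis, overall appearance) four to five weeks after preemergence soil spray. Dose equivalent to about 0.125 to 0.50 kg per hectare, applied in aqueous acetone to freshly seeded cups kept in greenhouse.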

[6] = system: CYPERUS SEROTINUS, ROTTB.; assay: Preemergence weed control under flooded paddy conditions, CYPSE (Flatsedge); details: preemergence weeds, rated three to four weeks after treatment
In short: as §1

SMILES: CCOC(=O)Cn1c(=O)n(CC(=O)OC)c(=O)n(-c2cc(Oc3ccc(C(F)(F)F)cc3Cl)ccc2[N+](=O)[O-])c1=O [Compound 6, 1-Ethyl methyl 5-{5-[(2-chloro-α,α,α-tri-fluoro-p-tolyl)oxy]-2-nitrophenyl}dihydro-2,4,6-trioxo-s-triazine-1,3(2H,4H)-diacetate]
- ORYSAT herbicidal rating (rice tolerance) ([1]; Rate 0.125 kg/ha): 1.0
- ORYSAT herbicidal rating (rice tolerance) ([1]; Rate 0.250 kg/ha): 1.0
- ORYSAT herbicidal rating (rice tolerance) ([1]; Rate 0.500 kg/ha): 1.0
- SAGPY herbicidal rating ([2]; Rate 0.125 kg/ha): 0.0
- SAGPY herbicidal rating ([2]; Rate 0.250 kg/ha): 0.0
- SAGPY herbicidal rating ([2]; Rate 0.500 kg/ha): 0.0
- GALAP rating ([3]; Rate 0.125 kg/ha): 9.0
- GALAP rating ([3]; Rate 0.250 kg/ha): 9.0
- GALAP rating ([3]; Rate 0.500 kg/ha): 9.0
- ABUTH, herbicide rating (0-9) ([4]; Rate 0.125 kg/ha): 9.0
- ABUTH, herbicide rating (0-9) ([4]; Rate 0.250 kg/ha): 9.0
- ABUTH, herbicide rating (0-9) ([4]; Rate 0.500 kg/ha): 9.0
- CHEAL rating ([5]; Rate 0.125 kg/ha): 9.0
- CHEAL rating ([5]; Rate 0.250 kg/ha): 9.0
- CHEAL rating ([5]; Rate 0.500 kg/ha): 9.0

SMILES: C#CCn1c(=O)n(CC(=O)OCC)c(=O)n(-c2cc(Oc3ccc(C(F)(F)F)cc3Cl)ccc2[N+](=O)[O-])c1=O [Compound 7, Ethyl 3-{5-[(2-chloro-α,α,α-trifluoro-p-tolyl)oxy]-2-nitrophenyl}tetrahydro-2,4,6-trioxo-5-(2-propynyl)-s-triazine-1(2H)-acetate]
- ORYSAT herbicidal rating (rice tolerance) ([1]; Rate 0.125 kg/ha): 0.0
- ORYSAT herbicidal rating (rice tolerance) ([1]; Rate 0.250 kg/ha): 0.0
- ORYSAT herbicidal rating (rice tolerance) ([1]; Rate 0.500 kg/ha): 1.0
- CYPSE herbicidal rating ([6]; Rate 0.125 kg/ha): 0.0
- CYPSE herbicidal rating ([6]; Rate 0.250 kg/ha): 0.0
- SAGPY herbicidal rating ([2]; Rate 0.125 kg/ha): 0.0
- SAGPY herbicidal rating ([2]; Rate 0.250 kg/ha): 0.0
- SAGPY herbicidal rating ([2]; Rate 0.500 kg/ha): 0.0
- GALAP rating ([3]; Rate 0.125 kg/ha): 4.0
- GALAP rating ([3]; Rate 0.250 kg/ha): 8.0
- GALAP rating ([3]; Rate 0.500 kg/ha): 9.0
